Values joined by “and” are separate entries in the source; they are usually repeats but may differ in a detail not shown here. Equal values may be shown once.
Test: Biodistribution of representative compounds ([^18F]Sri-07-56, [^18F]Sri-07-52, [^18F]JHU1221823, [^18F]FAPI-74), tissue % ID/g with carrier or blocker
Type: in vivo, mouse
Conditions: for Bladder % ID/g / Blood % ID/g / Brain % ID/g / Fat % ID/g / Femur % ID/g / Heart % ID/g / Kidney % ID/g / Large intestine % ID/g / Liver % ID/g / Lung % ID/g / Muscle % ID/g / Pancreas % ID/g / Salivery gland % ID/g / Small intestine % ID/g / Spleen % ID/g / Stomach % ID/g / Tumor % ID/g: individual mice
From the text: Biodistribution of Representative Compounds

N#CC1CCCN1C(=O)CNC(=O)c1ccnc2ccc(OCCCNC(=O)CCc3cn(CCC(NC(=O)c4ccc([18F])nc4)C(=O)NCCCCC(NC(=O)NC(CC(=O)O)C(=O)O)C(=O)O)nn3)cc12 (stereo not drawn) [[18F]Sri-07-52]
Bladder % ID/g Mean (60 min, 20 μCi per mouse): 1.75 % ID/g | Blood % ID/g Mean (60 min, 20 μCi per mouse): 2.39 % ID/g | Brain % ID/g Mean (60 min, 20 μCi per mouse): 0.09 % ID/g | Fat % ID/g Mean (60 min, 20 μCi per mouse): 0.41 % ID/g | Femur % ID/g Mean (60 min, 20 μCi per mouse): 2.10 % ID/g | Heart % ID/g Mean (60 min, 20 μCi per mouse): 1.39 % ID/g | Kidney % ID/g Mean (60 min, 20 μCi per mouse): 1.21 % ID/g | Large intestine % ID/g Mean (60 min, 20 μCi per mouse): 1.16 % ID/g | Liver % ID/g Mean (60 min, 20 μCi per mouse): 1.07 % ID/g | Lung % ID/g Mean (60 min, 20 μCi per mouse): 1.46 % ID/g | Muscle % ID/g Mean (60 min, 20 μCi per mouse): 1.40 % ID/g | Pancreas % ID/g Mean (60 min, 20 μCi per mouse): 3.30 % ID/g | Salivary gland % ID/g Mean (60 min, 20 μCi per mouse): 5.13 % ID/g | Small intestine % ID/g Mean (60 min, 20 μCi per mouse): 1.57 % ID/g | Spleen % ID/g Mean (60 min, 20 μCi per mouse): 0.74 % ID/g | Stomach % ID/g Mean (60 min, 20 μCi per mouse): 0.68 % ID/g | Tumor % ID/g Mean (60 min, 20 μCi per mouse): 2.27 % ID/g | Bladder % ID/g (60 min, 20 μCi per mouse): 1.90 % ID/g and 1.61 % ID/g | Blood % ID/g (60 min, 20 μCi per mouse): 2.58 % ID/g and 2.21 % ID/g | Brain % ID/g (60 min, 20 μCi per mouse): 0.08 % ID/g and 0.11 % ID/g | Fat % ID/g (60 min, 20 μCi per mouse): 0.53 % ID/g and 0.29 % ID/g | Femur % ID/g (60 min, 20 μCi per mouse): 1.91 % ID/g and 2.29 % ID/g | Heart % ID/g (60 min, 20 μCi per mouse): 1.36 % ID/g and 1.42 % ID/g | Kidney % ID/g (60 min, 20 μCi per mouse): 1.18 % ID/g and 1.23 % ID/g | Large intestine % ID/g (60 min, 20 μCi per mouse): 1.11 % ID/g and 1.21 % ID/g | Liver % ID/g (60 min, 20 μCi per mouse): 1.11 % ID/g and 1.04 % ID/g | Lung % ID/g (60 min, 20 μCi per mouse): 1.60 % ID/g and 1.32 % ID/g | Muscle % ID/g (60 min, 20 μCi per mouse): 1.43 % ID/g and 1.38 % ID/g | Pancreas % ID/g (60 min, 20 μCi per mouse): 3.34 % ID/g and 3.27 % ID/g | Salivery gland % ID/g (60 min, 20 μCi per mouse): 4.35 % ID/g and 5.90 % ID/g | Small intestine % ID/g (60 min, 20 μCi per mouse): 1.56 % ID/g and 1.57 % ID/g | Spleen % ID/g (60 min, 20 μCi per mouse): 0.72 % ID/g and 0.77 % ID/g | Stomach % ID/g (60 min, 20 μCi per mouse): 0.66 % ID/g and 0.69 % ID/g | Tumor % ID/g (60 min, 20 μCi per mouse): 2.44 % ID/g and 2.10 % ID/g

N#CC1CCCN1C(=O)CNC(=O)c1ccnc2ccc(OCCCNC(=O)CCc3cn(CCC(NC(=O)c4ccc([18F])nc4)C(=O)NCCCCC(NC(=O)NC(CC(=O)O)C(=O)O)C(=O)O)nn3)cc12 (stereo not drawn) [[^18F]Sri-07-52]
Bladder % ID/g Mean (30 min, ~100 μCi per mouse): 1.98 % ID/g | Blood % ID/g Mean (30 min, ~100 μCi per mouse): 10.03 % ID/g | Brain % ID/g Mean (30 min, ~100 μCi per mouse): 0.21 % ID/g | Fat % ID/g Mean (30 min, ~100 μCi per mouse): 0.50 % ID/g | Femur % ID/g Mean (30 min, ~100 μCi per mouse): 2.53 % ID/g | Heart % ID/g Mean (30 min, ~100 μCi per mouse): 4.58 % ID/g | Kidney % ID/g Mean (30 min, ~100 μCi per mouse): 2.71 % ID/g | Large intestine % ID/g Mean (30 min, ~100 μCi per mouse): 3.78 % ID/g | Liver % ID/g Mean (30 min, ~100 μCi per mouse): 3.20 % ID/g | Lung % ID/g Mean (30 min, ~100 μCi per mouse): 6.18 % ID/g | Muscle % ID/g Mean (30 min, ~100 μCi per mouse): 2.09 % ID/g | Pancreas % ID/g Mean (30 min, ~100 μCi per mouse): 5.86 % ID/g | Salivary gland % ID/g Mean (30 min, ~100 μCi per mouse): 13.84 % ID/g | Small intestine % ID/g Mean (30 min, ~100 μCi per mouse): 4.36 % ID/g | Spleen % ID/g Mean (30 min, ~100 μCi per mouse): 2.03 % ID/g | Stomach % ID/g Mean (30 min, ~100 μCi per mouse): 1.71 % ID/g | Tumor % ID/g Mean (30 min, ~100 μCi per mouse): 4.99 % ID/g | Bladder % ID/g (30 min, ~100 μCi per mouse): 1.47 % ID/g and 2.50 % ID/g | Blood % ID/g (30 min, ~100 μCi per mouse): 9.03 % ID/g and 11.04 % ID/g | Brain % ID/g (30 min, ~100 μCi per mouse): 0.24 % ID/g and 0.19 % ID/g | Fat % ID/g (30 min, ~100 μCi per mouse): 0.36 % ID/g and 0.64 % ID/g | Femur % ID/g (30 min, ~100 μCi per mouse): 2.15 % ID/g and 2.91 % ID/g | Heart % ID/g (30 min, ~100 μCi per mouse): 4.65 % ID/g and 4.52 % ID/g | Kidney % ID/g (30 min, ~100 μCi per mouse): 2.62 % ID/g and 2.80 % ID/g | Large intestine % ID/g (30 min, ~100 μCi per mouse): 5.82 % ID/g and 1.74 % ID/g | Liver % ID/g (30 min, ~100 μCi per mouse): 3.03 % ID/g and 3.36 % ID/g | Lung % ID/g (30 min, ~100 μCi per mouse): 6.53 % ID/g and 5.82 % ID/g | Muscle % ID/g (30 min, ~100 μCi per mouse): 2.07 % ID/g and 2.12 % ID/g | Pancreas % ID/g (30 min, ~100 μCi per mouse): 6.54 % ID/g and 5.18 % ID/g | Salivery gland % ID/g (30 min, ~100 μCi per mouse): 11.28 % ID/g and 16.41 % ID/g | Small intestine % ID/g (30 min, ~100 μCi per mouse): 4.18 % ID/g and 4.54 % ID/g | Spleen % ID/g (30 min, ~100 μCi per mouse): 2.06 % ID/g and 1.99 % ID/g | Stomach % ID/g (30 min, ~100 μCi per mouse): 1.72 % ID/g and 1.71 % ID/g | Tumor % ID/g (30 min, ~100 μCi per mouse): 5.57 % ID/g and 4.40 % ID/g | Bladder % ID/g Mean (120 min, 20 μCi per mouse): 1.66 % ID/g | Blood % ID/g Mean (120 min, 20 μCi per mouse): 5.44 % ID/g | Brain % ID/g Mean (120 min, 20 μCi per mouse): 0.22 % ID/g | Fat % ID/g Mean (120 min, 20 μCi per mouse): 0.56 % ID/g | Femur % ID/g Mean (120 min, 20 μCi per mouse): 2.17 % ID/g | Heart % ID/g Mean (120 min, 20 μCi per mouse): 3.20 % ID/g | Kidney % ID/g Mean (120 min, 20 μCi per mouse): 2.71 % ID/g | Large intestine % ID/g Mean (120 min, 20 μCi per mouse): 1.08 % ID/g | Liver % ID/g Mean (120 min, 20 μCi per mouse): 2.33 % ID/g | Lung % ID/g Mean (120 min, 20 μCi per mouse): 3.15 % ID/g | Muscle % ID/g Mean (120 min, 20 μCi per mouse): 1.53 % ID/g | Pancreas % ID/g Mean (120 min, 20 μCi per mouse): 3.98 % ID/g | Salivary gland % ID/g Mean (120 min, 20 μCi per mouse): 7.20 % ID/g | Small intestine % ID/g Mean (120 min, 20 μCi per mouse): 2.64 % ID/g | Spleen % ID/g Mean (120 min, 20 μCi per mouse): 1.51 % ID/g | Stomach % ID/g Mean (120 min, 20 μCi per mouse): 1.11 % ID/g | Tumor % ID/g Mean (120 min, 20 μCi per mouse): 1.96 % ID/g | Bladder % ID/g (120 min, 20 μCi per mouse): 0.97 % ID/g and 2.35 % ID/g | Blood % ID/g (120 min, 20 μCi per mouse): 4.70 % ID/g and 6.19 % ID/g | Brain % ID/g (120 min, 20 μCi per mouse): 0.32 % ID/g and 0.13 % ID/g | Fat % ID/g (120 min, 20 μCi per mouse): 0.74 % ID/g and 0.38 % ID/g | Femur % ID/g (120 min, 20 μCi per mouse): 1.99 % ID/g and 2.35 % ID/g | Heart % ID/g (120 min, 20 μCi per mouse): 3.20 % ID/g and 3.21 % ID/g | Kidney % ID/g (120 min, 20 μCi per mouse): 1.66 % ID/g and 3.77 % ID/g | Large intestine % ID/g (120 min, 20 μCi per mouse): 0.85 % ID/g and 1.30 % ID/g | Liver % ID/g (120 min, 20 μCi per mouse): 2.28 % ID/g and 2.43 % ID/g | Lung % ID/g (120 min, 20 μCi per mouse): 2.65 % ID/g and 3.65 % ID/g | Muscle % ID/g (120 min, 20 μCi per mouse): 1.58 % ID/g and 1.47 % ID/g | Pancreas % ID/g (120 min, 20 μCi per mouse): 3.00 % ID/g and 4.96 % ID/g | Salivery gland % ID/g (120 min, 20 μCi per mouse): 6.20 % ID/g and 8.21 % ID/g | Small intestine % ID/g (120 min, 20 μCi per mouse): 2.55 % ID/g and 2.72 % ID/g | Spleen % ID/g (120 min, 20 μCi per mouse): 1.54 % ID/g and 1.49 % ID/g | Stomach % ID/g (120 min, 20 μCi per mouse): 1.00 % ID/g and 1.23 % ID/g | Tumor % ID/g (120 min, 20 μCi per mouse): 1.67 % ID/g and 2.25 % ID/g
